Entries after “also recorded” stand apart in the source; their conditions may differ. Like-named read-outs stand apart in the source and are kept apart here.
What was measured:
[1] = tested on: N-type calcium channels (N-channels); type: binding, rats or mice; conditions: for IC50: omega-conotoxin binding, brain membrane fragments, read-out: N-channel IC50
L-type Ca2+ channel = experiment: inhibition of tritiated dihydropyridine PN-200 binding to the L-type Ca2+ channel; conditions: in words
Method: These tests were carried out as follows. Brain tissue was used from rats or mice that had been anesthetized with halothane and decapitated. Membrane fractions were prepared as follows. Tissue samples were mixed with 25 tissue-volumes of 50 mM Tris-HCl buffer, pH 7.5. Tissue-buffer mixtures were homogenized using a Brinkman Polytron homogenizer, and resulting tissue homogenate was centrifuged at 2,400 g to pellet non-membrane derived material. The supernatant containing the brain membrane fragments was centrifuged at 30,000 g in a refrigerated (4° C.) centrifuge for 20 minutes. The pellet was resuspended in 100 tissue-volumes of the Tris-HCl buffer and centrifuged again as above. The process was repeated two more times, and the resulting pellet was resuspended in Tris-HCl buffer solution. The suspended tissue contained synaptosomal and other neurally derived membrane fragments with intact N-channels.

PTZ-induced seizures [2] = experiment: PTZ-induced seizures in mice (ICV); type: in vivo, Swiss Webster mice; conditions: for % having seizures: PTZ 70 mg/kg
Method: In addition to the in vivo gerbil experiments described in Example 4, aminoglycosides were tested in various ways to evaluate their ability to inhibit experimentally-induced seizures in mice. In one set of tests, male Swiss Webster white mice weighing 20-25 grams were used. The animals (10 per group) were pre-injected with 3 microliters (μL) of either a saline solution (control group), or saline solution containing varying dosages of neomycin sulfate. The injection was performed via the […] route, to insure access of the neomycin to neurons; when these experiments were initially performed, questions concerning the ability of neomycin to penetrate the BBB had not yet been addressed. These injections were performed as described in Haley and McCormick 1957. Twenty minutes after the injections, the animals were administered a dose of 70 mg/kg of the convulsion-inducing drug pentylenetetrazol (PTZ), injected subcutaneously in saline solution. Control animals treated with ICV saline have full seizures within seven minutes following this dose of PTZ.

PTZ-induced seizures [3] = conditions: in words; not measured in these tests; cited from earlier work
PTZ-induced seizures [4] = experiment: PTZ-induced seizures in rats (ICV or IP); conditions: 2 mg/kg
Method: Seizure studies were also performed in male Sprague Dawley rats (250-300 grams). In these studies, cannulas were implanted in the lateral cerebral ventricles of several animals so that the test drugs could be administered directly into the lateral ventricle of the brain. The drugs being tested were administered 15 minutes before the administration of a convulsant drug, PTZ, at a dose of 60 mg/kg (in a saline vehicle) injected subcutaneously.
A second series of experiments was performed where neomycin sulfate was administered by the IP 30 minutes prior to PTZ injection.

[5] = tested on: electroconvulsive seizures; experiment: electroconvulsive seizures (ECS) in mice; conditions: ICV, scale one to six, six = no seizure activity
Method: This was accomplished using a set of platinum electrodes placed subcutaneously in two skull regions of Swiss Webster (20-25 gram) mice. The stimulus voltage was 22 mv at a duration of 0.125 mSec.
The seizures were graded on a severity scale of one to six. A score of six represented a complete absence of seizure activity, while a score of one represented the presence of a full tonic-clonic seizure with total hind leg extension. Test drugs were administered via the ICV route in a total volume of 2.5 microliters, 15 minutes prior to the administration of the electroconvulsive shock.

[6] = tested on: CA1 neurons in hippocampal tissue slices; experiment: protection of rat hippocampal tissue slices (CA1 population spike recovery) against hypoxia; type: cell-based, Sprague-Dawley rats
blood platelets = experiment: inhibition of ADP-induced platelet aggregation; type: cell-based, human; conditions: 20 μM ADP, approximate results from initial tests
[7] = tested on: N-channels on blood platelets; type: binding, human; conditions: approximate results from initial tests, read-out: Conotoxin blockage

NCC[C@H](O)C(=O)N[C@@H]1C[C@H](N)[C@@H](O[C@H]2O[C@H](CN)[C@@H](O)[C@H](O)[C@H]2O)[C@H](O)[C@H]1O[C@H]1O[C@H](CO)[C@@H](O)[C@H](N)[C@H]1O [Amikacin]
IC50 [1]: 45 µM

NC[C@H]1O[C@H](O[C@H]2[C@H](O)[C@@H](O[C@H]3O[C@H](CO)[C@@H](O)[C@H](N)[C@H]3O)[C@H](N)C[C@@H]2N)[C@H](N)[C@@H](O)[C@@H]1O [Bekanamycin]
IC50 [1]: > 100 µM
L-channel IC50 (L-type Ca2+ channel): No inhibition

OC[C@H]1O[C@@H](n2cnc3c(NC4CCCCC4)ncnc32)[C@H](O)[C@@H]1O [Cyclohexyladenosine, cyclohexyladenosine]
% having seizures (PTZ-induced seizures [2]; 2 μg): 40%
behavioral side effects (PTZ-induced seizures [2]; in words): various behavioral side effects such as ataxia (lack of muscular control, as evidenced by an inability to walk properly) and sedation
known cardiovascular side effects (PTZ-induced seizures [3]): known to provoke hypotension and bradycardia

CN1C(=O)CN=C(c2ccccc2)c2cc(Cl)ccc21 [Diazepam]
% having seizures (PTZ-induced seizures [4]): 75%
Seizure Score ([5]; 5 ug): 4.4

NC[C@@H]1CC[C@@H](N)[C@@H](O[C@H]2[C@H](O)[C@@H](O[C@H]3O[C@H](CO)[C@@H](O)[C@H](N)[C@H]3O)[C@H](N)C[C@@H]2N)O1 [Dibekacin]
IC50 [1]: 60 µM
L-channel IC50 (L-type Ca2+ channel): No inhibition

CNC1C(OC2C(OC3C(O)C(O)C(N=C(N)N)C(O)C3N=C(N)N)OC(C)C2(O)CO)OC(CO)C(O)C1O (stereo not drawn) [Dihydrostreptomicin]
IC50 [1]: > 50 µM

CN[C@H]1C[C@@H](N)[C@H](O)[C@@H](O[C@@H]2O[C@H](CO)[C@H](O)[C@@H]3OC4(O[C@H]23)O[C@H]([C@@H](N)CO)[C@H](O)[C@H](O)[C@H]4O)[C@@H]1O (stereo partly drawn) [Hygromycin B]
IC50 [1]: > 1000 µM

NC[C@H]1O[C@H](O[C@H]2[C@H](O)[C@@H](O[C@H]3O[C@H](CO)[C@@H](O)[C@H](N)[C@H]3O)[C@H](N)C[C@@H]2N)[C@H](O)[C@@H](O)[C@@H]1O [Kanamycin]
IC50 [1]: > 50 µM
L-channel IC50 (L-type Ca2+ channel): No inhibition

C[C@H]1O[C@H](O[C@H]2[C@H](O)[C@@H](O)[C@@H](O)[C@H](O)[C@@H]2O)[C@@H](N)C[C@@H]1NC(=N)C(=O)O [Kasugamycin]
IC50 [1]: > 1000 µM

NC[C@@H]1O[C@H](O[C@H]2[C@@H](O)[C@H](O[C@@H]3[C@@H](O)[C@H](N)C[C@H](N)[C@H]3O[C@H]3O[C@H](CO)[C@@H](O)C[C@H]3N)O[C@@H]2CO)[C@H](N)[C@@H](O)[C@@H]1O[C@H]1O[C@H](CO)[C@@H](O)[C@H](O)[C@@H]1O [Lividomycin A]
IC50 [1]: 50 µM
L-channel IC50 (L-type Ca2+ channel): No inhibition

NC[C@H]1O[C@H](O[C@H]2[C@H](O)[C@@H](O)[C@H](N)C[C@@H]2N)[C@H](N)[C@@H](O)[C@@H]1O [Neamine]
IC50 [1]: 25 µM

NC[C@@H]1O[C@H](O[C@H]2[C@@H](O)[C@H](O[C@@H]3[C@@H](O)[C@H](N)C[C@H](N)[C@H]3O[C@H]3O[C@H](CN)[C@@H](O)[C@H](O)[C@H]3N)O[C@@H]2CO)[C@H](N)[C@@H](O)[C@@H]1O.O=S(=O)(O)O [Neomycin Sulfate]
% having seizures (PTZ-induced seizures [2]; 5 μg ICV): 50%
% having seizures (PTZ-induced seizures [2]; 10 μg ICV): 60%
protection against seizures (PTZ-induced seizures [2]; five or ten micrograms ICV, in words): substantially protected against seizures

NC[C@@H]1O[C@H](O[C@H]2[C@@H](O)[C@H](O[C@@H]3[C@@H](O)[C@H](N)C[C@H](N)[C@H]3O[C@H]3O[C@H](CO)[C@@H](O)[C@H](O)[C@H]3N)O[C@@H]2CO)[C@H](N)[C@@H](O)[C@@H]1O [Paromomycin]
IC50 [1]: 40 µM
L-channel IC50 (L-type Ca2+ channel): No inhibition

NC[C@H]1O[C@H](O[C@H]2[C@H](O[C@@H]3O[C@H](CO)[C@@H](O)[C@H]3O)[C@@H](O)[C@H](N)C[C@@H]2N)[C@H](N)[C@@H](O)[C@@H]1O [Ribostamycin]
L-channel IC50 (L-type Ca2+ channel): No inhibition

CN[C@@H]1[C@@H](O)[C@@H](O[C@@H]2[C@@H](O)[C@H](O[C@H]3OC(CN)=CC[C@H]3N)[C@@H](N)C[C@H]2N)OC[C@]1(C)O [Sisomicin]
N-channel blocking potency (in words) [1]: high potency
N-channel blocking potency (in words) ([1]; listed as sisomicin): most potent N-channel blockers
IC50 [1]: 5 to 10 µM
CA1 antidromic PS amplitude recovery ([6]; 1.0 mM, stimulated slices): 70±15%
CA1 orthodromic PS amplitude recovery ([6]; 1.0 mM, stimulated slices): 76±9%
CA1 antidromic PS recovery ([6]; 1.0 mM, unstimulated slices): 93±3%
CA1 orthodromic PS recovery ([6]; 1.0 mM, unstimulated slices): 93±3%
hypoxic injury potential (HIP) profile ([6]; in words): HIP profiles evolved with a time course similar to untreated slices
neuronal protection against hypoxia (summary) ([6]; in words): restore orthodromic and antidromic activity; also recorded: high level of neuronal protection against hypoxia
L-channel IC50 (L-type Ca2+ channel): No inhibition

CNC1C(O)C(NC)C2OC3(O)C(=O)CC(C)OC3OC2C1O (stereo not drawn) [Spectiomycin]
IC50 [1]: > 1000 µM

[H]/N=C(/N)N[C@H]1[C@H](O)[C@@H](O)[C@H](O[C@@H]2O[C@@H](C)[C@](O)(C=O)[C@H]2O[C@@H]2O[C@@H](CO)[C@H](O)[C@@H](O)[C@@H]2NC)[C@@H](N/C(N)=N\[H])[C@@H]1O [Streptomycin]
N-channel blocking potency (in words) [1]: low potency
N-channel blocking potency (in words) ([1]; listed as streptomycin): somewhat less potent N-channel blocker
IC50 [1]: 25 µM
protection of CA1 antidromic population spikes ([6]; 10 mM): 38±22%
neuronal protection against hypoxia (summary) ([6]; in words): ineffective in reducing hypoxic damage to hippocampal tissue slices except when administered in high dosages; also recorded: only marginally effective and required high doses
neuronal protection against hypoxia (summary) ([6]; in words, listed as streptomycin): some potency but at substantially lower levels; also recorded: lower degree of neuroprotection
IC50 (blood platelets; Homo sapiens, Platelet): 5000 µM
IC50 [7]: 15 µM
L-channel IC50 (L-type Ca2+ channel): No inhibition

NC[C@H]1O[C@H](O[C@H]2[C@H](O)[C@@H](O[C@H]3O[C@H](CO)[C@@H](O)[C@H](N)[C@H]3O)[C@H](N)C[C@@H]2N)[C@H](N)C[C@@H]1O [Tobramycin]
IC50 [1]: > 50 µM

Butirosin
IC50 [1]: 150 µM

Gentamicin
N-channel blocking potency (in words) [1]: intermediate
N-channel blocking potency (in words) ([1]; listed as gentamicin): most potent N-channel blockers
IC50 [1]: 10 µM
CA1 orthodromic PS recovery ([6]; 2.5 mM, stimulated slices): 60±23%
neuronal protection against hypoxia (summary) ([6]; in words): restore orthodromic and antidromic activity; also recorded: high level of neuronal protection against hypoxia
IC50 (blood platelets): 2000 µM
IC50 [7]: 5 µM
Seizure Score ([5]; 40 ug): 4.9
